This passage reports Ki and MIC results from PMC7215574, “Development of Thiazolidinones as Fungal Carbonic Anhydrase Inhibitors” (International Journal of Molecular Sciences, 2020).

Molecules are shown by their SMILES. In brackets after ≈: the same amount, converted by molar mass. Read-outs that look alike come from different tables or passages of the source. Some results are limits rather than exact numbers.

One experiment addresses T1, hCA I (Homo sapiens, UniProt P00915).
T1 construct: gene CA1; recombinant, obtained in-house as previously reported
Description: stopped-flow CO2 hydrase assay. The format is biochemical. An excerpt: stopped-flow CO2 hydrase assay on hCA I

A short description of experiment [1]: stopped-flow CO2 hydrase assay. It is filed as biochemical, Homo sapiens. To be noted: read-out: hCA I.
The next experiment concerns the target T2, CgNce103 (Nakaseomyces glabratus, UniProt Q6FTL6).
T2 construct: gene NCE103; recombinant, obtained in-house as previously reported; beta-class zinc enzyme
T2 sequence (Q6FTL6 1-219): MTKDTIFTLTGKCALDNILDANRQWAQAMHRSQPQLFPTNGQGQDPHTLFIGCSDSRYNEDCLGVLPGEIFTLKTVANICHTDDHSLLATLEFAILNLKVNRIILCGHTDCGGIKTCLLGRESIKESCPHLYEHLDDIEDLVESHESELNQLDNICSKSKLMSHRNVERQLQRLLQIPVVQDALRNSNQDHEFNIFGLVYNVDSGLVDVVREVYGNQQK
Description: stopped-flow CO2 hydrase assay. It is filed as biochemical.

The test system of experiment [2] is T3, Candida sake C. sakè 3 strains.
T3 construct: 3 clinical isolates
Description: microbe, parasite or virus in culture. The arrangement: species or system clinical Candida isolates; broth microdilution antifungal MIC, visual growth inhibition, CLSI. Conditions: Fermentozyma sake, 24 h; read-out: Tested Fungi (MIC Values μg/mL) / C. sakè 3 strains. How it is done: (§1) The in vitro antifungal activities were determined by the broth microdilution method with sabouraud dextrose broth (BBL Microbiology Systems, Cockeysville, MD, USA), as recommended by the by the CLSI [43]. Ninety-six-well polystyrene microtitre plates containing serial dilutions of each compound were inoculated with each microorganism to yield the appropriate density (1–5 × 10^3 cells/mL) in a 100-μL final volume. Each plate included (i) fungi without the addition of the compound, (ii) just the medium, and (iii) just the compound. Topical and systemic antifungal reference drugs, clotrimazole and fluconazole, were inserted in the experiment. The plates were incubated for 24 h at 35 °C. […] Three independent experiments were performed in triplicate. The antimicrobial activity of these thiazolidinones was evaluated versus 24 clinical Gram-positive (S. aureus and S. epidermidis) and Gram-negative (E. coli and Enterobacter spp.) microorganisms. The antifungal activity of these derivatives was then tested versus 16 clinical fungal isolates belonging to the most relevant Candida spp. (C. albicans, C. tropicalis, C. parapsilosis, C. sakè, and C. glabrata). Prior to testing, each isolate was cultured on a selective medium to ensure purity and optimal growth, as previously reported. The isolates were routinely identified by the morphological aspects of colonies and by biochemical identification. The used clinical isolates were collected from specimens of patients at the ‘Azienda Policlinico Umberto I’ (Sapienza University of Rome) and were obtained from hematology/oncology and surgery departments, which also included an intensive care unit. In particular, the samples were isolated from the upper and lower respiratory tract, blood, and indwelling venous catheters; the isolates were identified by conventional methodologies. Participating subjects gave their written informed consent for this study.

The next experiment deals with T4, C. albicans 5 strains.
T4 construct: 5 clinical isolates
Description: microbe, parasite or virus in culture. The arrangement: species or system clinical Candida isolates; broth microdilution antifungal MIC, visual growth inhibition, CLSI. To be noted: Candida albicans, 24 h, read-out: Tested Fungi (MIC Values μg/mL) / C. albicans 5 strains. The procedure: as §1

In the next experiment the test system is T5, C. glabrata 3 strains.
T5 construct: 3 clinical isolates
Description: microbe, parasite or virus in culture. More on the design: species or system clinical Candida isolates; broth microdilution antifungal MIC, visual growth inhibition, CLSI. To be noted: Nakaseomyces glabratus, 24 h, read-out: Tested Fungi (MIC Values μg/mL) / C. glabrata 3 strains. How it is done:
as §1

Experiment [3] relates to T6, C. tropicalis 3 strains.
T6 construct: 3 clinical isolates
Kind of experiment: microbe, parasite or virus in culture. Conditions: Candida tropicalis, 24 h, read-out: Tested Fungi (MIC Values μg/mL) / C. tropicalis 3 strains. The arrangement: species or system clinical Candida isolates; broth microdilution antifungal MIC, visual growth inhibition, CLSI. How it is done:
as §1

Experiment [4] concerns T7, C. parapsilosis 2 strains.
T7 construct: 2 clinical isolates
Description: microbe, parasite or virus in culture. More on the design: species or system clinical Candida isolates; CLSI broth microdilution MIC, Sabouraud dextrose broth, 35 °C, visual complete growth inhibition. Conditions: Lodderomyces parapsilosis, 24 h, read-out: Tested Fungi (MIC Values μg/mL) / C. parapsilosis 2 strains. How it is done:
as §1

Experiment [5] relates to T3, Candida sake C. sakè 3 strains. Description: microbe, parasite or virus in culture. Conditions: Fermentozyma sake, 24 h; read-out: Tested Fungi (MIC Values μg/mL) / C. sakè 3 strains. More on the design: species or system clinical Candida isolates; CLSI broth microdilution MIC, Sabouraud dextrose broth, 35 °C, visual complete growth inhibition. The procedure: as §1
The target in a further experiment is T8, hCA II (Homo sapiens, UniProt P00918).
T8 construct: gene CA2; recombinant, obtained in-house as previously reported
Description: stopped-flow CO2 hydrase assay. The format is biochemical. An excerpt:
stopped-flow CO2 hydrase assay on hCA II

The subject of experiment [6] is T6, C. tropicalis 3 strains. Kind of experiment: microbe, parasite or virus in culture. The arrangement: species or system clinical Candida isolates; CLSI broth microdilution MIC, Sabouraud dextrose broth, 35 °C, visual complete growth inhibition. Conditions: Candida tropicalis, 24 h, read-out: Tested Fungi (MIC Values μg/mL) / C. tropicalis 3 strains. The procedure:
as §1

T1 sequence (P00915 2-261): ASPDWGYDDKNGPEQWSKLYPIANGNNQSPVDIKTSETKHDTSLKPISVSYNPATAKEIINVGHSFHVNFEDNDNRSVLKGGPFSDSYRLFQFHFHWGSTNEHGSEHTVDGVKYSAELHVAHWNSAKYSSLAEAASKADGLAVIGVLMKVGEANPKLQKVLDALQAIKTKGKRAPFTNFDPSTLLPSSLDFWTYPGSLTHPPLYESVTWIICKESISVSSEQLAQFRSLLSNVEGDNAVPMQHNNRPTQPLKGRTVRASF

In the case of `Cc1cccc(N2C(=O)C(C)S/C2=N\NC(=O)C(O)c2ccccc2)c1` (centres unmarked) [4g], the Ki is above 100 µM on hCA I, above 100 µM in experiment [1] and 0.5 µM on CgNce103. Also, the MIC in [2] is 4 to 8 µg/mL (≈ 10.8 to 21.7 µM); in the experiment with C. albicans 5 strains it was 4 to 16 µg/mL (≈ 10.8 to 43.3 µM); with C. glabrata 3 strains it was 4 to 8 µg/mL (≈ 10.8 to 21.7 µM); in the experiment with C. tropicalis 3 strains [3], 4 to 8 µg/mL (≈ 10.8 to 21.7 µM); in experiment [4], 32 µg/mL (≈ 86.6 µM).
In the case of `O=C(N/N=C1\SCC(=O)N1c1ccccc1Br)C(O)c1ccccc1` (centres unmarked) [3g], the values for the Ki (at hCA I; in [1]; at CgNce103) were above 100 µM, above 100 µM and 10.2 µM, respectively. Besides, the MIC is 8 to 16 µg/mL (≈ 19 to 38.1 µM) in the experiment on C. albicans 5 strains; 8 to 32 µg/mL (≈ 19 to 76.1 µM) in the experiment on C. glabrata 3 strains; 8 to 32 µg/mL (≈ 19 to 76.1 µM) with C. tropicalis 3 strains [3]; 16 µg/mL (≈ 38.1 µM) in experiment [5]; 8 µg/mL (≈ 19 µM) in [4].
As to `CC1S/C(=N\NC(=O)C(O)c2ccccc2)N(c2ccc(Br)cc2)C1=O` (centres unmarked) [4f], the Ki at hCA I was above 100 µM; in experiment [1], above 100 µM; on CgNce103 it was 0.11 µM. In addition, the MIC was 4 to 8 µg/mL (≈ 9.21 to 18.4 µM) in experiment [2]; 4 to 16 µg/mL (≈ 9.21 to 36.8 µM) with C. albicans 5 strains; 4 to 8 µg/mL (≈ 9.21 to 18.4 µM) with C. glabrata 3 strains; 4 to 8 µg/mL (≈ 9.21 to 18.4 µM) with C. tropicalis 3 strains [3]; 32 µg/mL (≈ 73.7 µM) in experiment [4].
For `O=C(N/N=C1\SCC(=O)N1c1cccc(Cl)c1)C(O)c1ccccc1` (centres unmarked) [3e], the Ki was 50.3 µM on hCA II, above 100 µM on hCA I and 0.43 µM on CgNce103. The MIC was 8 to 32 µg/mL (≈ 21.3 to 85.1 µM) in experiment [2]; 8 to 32 µg/mL (≈ 21.3 to 85.1 µM) in the experiment with C. albicans 5 strains; 8 to 32 µg/mL (≈ 21.3 to 85.1 µM) in the experiment with C. glabrata 3 strains; 32 µg/mL (≈ 85.1 µM) in experiment [4]; 32 µg/mL (≈ 85.1 µM) in the experiment on C. tropicalis 3 strains [6].
`COc1ccc(N2C(=O)C(C)S/C2=N\NC(=O)C(O)c2ccccc2)cc1` (centres unmarked) [4i]: the Ki is above 100 µM on hCA I, above 100 µM in [1] and 0.69 µM at CgNce103. Also, the MIC was 8 to 32 µg/mL (≈ 20.8 to 83 µM) in experiment [2]; 8 to 32 µg/mL (≈ 20.8 to 83 µM) in the experiment with C. albicans 5 strains; 8 to 32 µg/mL (≈ 20.8 to 83 µM) in the experiment with C. glabrata 3 strains; 32 µg/mL (≈ 83 µM) in experiment [4]; 16 µg/mL (≈ 41.5 µM) in the experiment on C. tropicalis 3 strains [6].
In the case of `Cc1ccc(N2C(=O)CS/C2=N\NC(=O)C(O)c2ccccc2)cc1` (centres unmarked) [3l], the Ki is above 100 µM at hCA I, above 100 µM in experiment [1] and 6.3 µM on CgNce103. The MIC in experiment [2] was 8 to 32 µg/mL (≈ 22.5 to 90 µM); in the experiment with C. albicans 5 strains, 8 to 32 µg/mL (≈ 22.5 to 90 µM); in the experiment with C. glabrata 3 strains, 8 to 32 µg/mL (≈ 22.5 to 90 µM); in experiment [4], 32 µg/mL (≈ 90 µM); with C. tropicalis 3 strains [6], 32 µg/mL (≈ 90 µM).
With `CC1S/C(=N\NC(=O)C(O)c2ccccc2)N(c2cccc(F)c2)C1=O` (centres unmarked) [4a], the Ki at hCA I is above 100 µM; in experiment [1], above 100 µM; at CgNce103 it was 0.11 µM. Also, the MIC was 4 to 8 µg/mL (≈ 10.7 to 21.4 µM) in [2]; 16 to 32 µg/mL (≈ 42.8 to 85.7 µM) in the experiment with C. albicans 5 strains; 8 to 32 µg/mL (≈ 21.4 to 85.7 µM) in the experiment on C. glabrata 3 strains; 8 to 32 µg/mL (≈ 21.4 to 85.7 µM) with C. tropicalis 3 strains [3]; 8 µg/mL (≈ 21.4 µM) in experiment [4].
Turning to `CC1S/C(=N\NC(=O)C(O)c2ccccc2)N(c2ccc(Cl)cc2)C1=O` (centres unmarked) [4d], the MIC in [2] is 4 to 8 µg/mL (≈ 10.3 to 20.5 µM); in the experiment with C. albicans 5 strains it was 4 to 16 µg/mL (≈ 10.3 to 41 µM); in the experiment with C. glabrata 3 strains, 8 to 32 µg/mL (≈ 20.5 to 82.1 µM); in the experiment with C. tropicalis 3 strains [3] it was 8 to 32 µg/mL (≈ 20.5 to 82.1 µM); in [4], 8 µg/mL (≈ 20.5 µM).
Take `CC1S/C(=N\NC(=O)C(O)c2ccccc2)N(c2cccc(C(F)(F)F)c2)C1=O` (centres unmarked) [4k]: the Ki on hCA I was above 100 µM; in [1], above 100 µM; at CgNce103, 0.11 µM. In addition, the MIC in [2] was 8 to 32 µg/mL (≈ 18.9 to 75.6 µM); with C. albicans 5 strains, 32 to 128 µg/mL (≈ 75.6 to 302 µM); in the experiment with C. glabrata 3 strains, 8 to 32 µg/mL (≈ 18.9 to 75.6 µM); in experiment [4] it was 64 µg/mL (≈ 151 µM); in the experiment with C. tropicalis 3 strains [6], 128 µg/mL (≈ 302 µM).
As for `CC1S/C(=N\NC(=O)C(O)c2ccccc2)N(c2ccc(F)cc2)C1=O` (centres unmarked) [4b], the values for the Ki (at hCA I; in experiment [1]; at CgNce103) were above 100 µM, above 100 µM and 0.48 µM, respectively. For the same compound, the MIC was 4 to 8 µg/mL (≈ 10.7 to 21.4 µM) in [2]; 16 to 32 µg/mL (≈ 42.8 to 85.7 µM) in the experiment with C. albicans 5 strains; 8 to 32 µg/mL (≈ 21.4 to 85.7 µM) with C. glabrata 3 strains; 8 to 32 µg/mL (≈ 21.4 to 85.7 µM) with C. tropicalis 3 strains [3]; 8 µg/mL (≈ 21.4 µM) in experiment [4].
